Laboratory results: patent publication US20200079786A1, “ANALOGS OF […] AS SOLUBLE EPOXIDE HYDROLASE INHIBITORS” (UNIVERSITAT DE BARCELONA, priority 2015, published 2020)
Values after ≈ are worked out from the molar mass of the structure shown. Like-named read-outs stand apart in the source and are kept apart here.

Experiments:
recombinant human sEH = target: T1, recombinant human sEH (Homo sapiens, UniProt P34913); experiment: In vitro determination of sEH inhibition activity (fluorescent assay, PHOME substrate); assay type: biochemical; conditions: mean ± Standard Error, min. three replicates, read-out: IC50 (nM) ± SE, sEH inhibition activity
T1 construct: purchased Cayman Chemical 10011669
T1 sequence (P34913 1-555): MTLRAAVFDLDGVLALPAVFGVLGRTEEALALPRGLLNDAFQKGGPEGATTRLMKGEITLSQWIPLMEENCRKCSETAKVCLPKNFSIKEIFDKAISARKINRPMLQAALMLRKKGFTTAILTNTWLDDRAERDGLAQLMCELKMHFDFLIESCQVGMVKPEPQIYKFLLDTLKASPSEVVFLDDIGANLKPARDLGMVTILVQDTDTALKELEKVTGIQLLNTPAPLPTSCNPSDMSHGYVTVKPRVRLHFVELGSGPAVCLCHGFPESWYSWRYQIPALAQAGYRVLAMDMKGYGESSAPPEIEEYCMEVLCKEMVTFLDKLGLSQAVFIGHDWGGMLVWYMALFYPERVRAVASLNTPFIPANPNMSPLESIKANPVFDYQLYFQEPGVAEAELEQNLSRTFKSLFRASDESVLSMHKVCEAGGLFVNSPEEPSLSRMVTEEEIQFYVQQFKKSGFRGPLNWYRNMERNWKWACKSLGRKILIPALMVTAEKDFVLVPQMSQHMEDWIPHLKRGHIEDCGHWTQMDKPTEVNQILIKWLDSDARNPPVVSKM
Description: 3-(Phenyl-oxiranyl)-acetic acid cyano-(6-methoxy-naphthalen-2-yl)-methyl ester (PHOME; from Cayman Chemical, item number 10009134; CAS 1028430-42-3); cf. N. M. Wolf et al., Anal. Biochem. 2006, vol. 355, pp. 71-80.
Solutions: • Assay buffer: Bis/Tris HCl 25 mM pH 7.0 containing 0.1 mg/mL of bovine serum albumin (BSA). • PHOME at 200 μM in DMSO. • Solution of recombinant human sEH (Cayman Chemical, item number 10011669), diluted with assay buffer. • Inhibitors dissolved in DMSO at appropriated concentrations.
In a black 96-well plate (Greiner Bio-One, item number 655900), fill the background wells with 90 μL and the positive control and inhibitor wells with 85 μL of assay buffer. Add 5 μL of DMSO to background and positive control wells, and then add 5 μL of inhibitor solution in inhibitor wells. Add 5 μL of the solution of hsEH to the positive control and inhibitor wells and mix several time. Prepare a 1/21 dilution of the solution of PHOME with assay buffer according to final volume required, and then add 105 μL of each well. Shake carefully the plate for 10 seconds and incubate for 5 minutes at room temperature. […] Results were obtained by regression analysis from at least three data points in a linear region of the curve. IC50 values are average of minimum three independent replicates.

[1] = Determination of cytotoxicity in THLE-2 cells (ATP viability); assay type: cell-based; conditions: human
Description: Cytotoxic effects of assayed compounds were tested using the immortalized human liver cell line THLE-2 (ATCC CRL-2706). Cells were cultured in BEGM medium (Clonetics # CC-4175) containing all the supplements kit except additional EGF and G418. Medium was completed by adding 0.7 μg/mL phosphoethanolamine, 0.5 ng/mL epidermal growth factor, antibiotics (penicillin and streptomycin) and 10% fetal bovine serum (FBS).
Cells were plated in 96-well black microplates at 10,000 cells/well density and were incubated at 37° C. (5% CO2, 95% humidity) for 24 h to allow the cells to adhere and form a monolayer. Test compounds were solubilized in 100% DMSO at a concentration curve way and then diluted with cell culture medium containing 10% DMSO. The final concentrations of the test compounds (1% DMSO) ranged from 0-100 μM in a final volume of 200 μL. Microplates were maintained at 37° C. (5% CO2, 95% humidity) during 3 days. Following this 72 h exposure to test compounds, cell viability in each well was determined by measuring the concentration of cellular adenosine triphosphate (ATP) using the ATP1Step Kit as described by the manufacturer (Perkin-Elmer). In a typical procedure, 50 μL of cell reagent is added to all wells of each test plate followed by incubation for 10 min at room temperature on an orbital shaker. ATP concentration was determined by reading chemical luminescence using the Envision plate reader (PerkinElmer). The percentage of viable cells relative to the non-drug treated controls was determined for each well and LC50 values were calculated as concentrations projected to kill 50% of the cells following a 72 h exposure, an average of minimum two independent replicates.

[2] = Parallel artificial membrane permeation assay for blood-brain barrier (PAMPA-BBB); assay type: in vitro ADME, porcine; conditions: PBS:EtOH (70:30)
Description: The in vitro permeability (Pe) of the test compounds through lipid extract of porcine brain membrane was determined. Assayed compounds were tested using a mixture of PBS:EtOH (70:30). […] From this equation and taking into account the limits established by Di et al. for BBB permeation, the ranges of permeability were established, as follows.

[3] = Determination of water solubility (nephelometry); assay type: physicochemical; conditions: aqueous with cosolvent or surfactant or cyclodextrin, kinetic from dmso stock; 5% DMSO: 95% PBS buffer, 37° C., read after 2 and 4 h; read-out: S (solubility)
sEH in AR42j cells = target: T2, sEH in AR42j cells (Rattus norvegicus, UniProt P80299); experiment: In vitro determination of sEH inhibition activity in AR42j cells (cell-based fluorescent assay); conditions: AR-42J, read-out: % Inhn. ± SE (100 μM), sEH inhibition activity in cell culture
T2 sequence (P80299 1-554): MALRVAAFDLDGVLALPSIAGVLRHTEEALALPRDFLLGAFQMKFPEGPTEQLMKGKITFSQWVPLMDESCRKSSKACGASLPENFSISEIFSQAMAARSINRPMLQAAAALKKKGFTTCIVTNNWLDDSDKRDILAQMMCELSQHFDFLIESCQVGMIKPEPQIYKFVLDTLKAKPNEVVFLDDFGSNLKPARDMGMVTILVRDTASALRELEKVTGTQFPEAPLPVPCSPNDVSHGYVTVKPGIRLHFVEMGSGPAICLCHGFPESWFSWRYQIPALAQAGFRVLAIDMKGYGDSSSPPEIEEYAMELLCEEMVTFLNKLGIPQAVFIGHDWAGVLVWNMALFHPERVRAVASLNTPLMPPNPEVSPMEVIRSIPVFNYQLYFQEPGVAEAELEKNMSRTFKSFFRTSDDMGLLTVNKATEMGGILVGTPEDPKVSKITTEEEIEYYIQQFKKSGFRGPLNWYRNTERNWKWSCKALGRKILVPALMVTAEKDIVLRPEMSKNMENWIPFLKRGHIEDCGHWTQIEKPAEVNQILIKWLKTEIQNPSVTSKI
Description: Solutions Preparation: • Assay buffer 1×: add 10 mL of the CBA-Buffer (10×) to 90 mL of distilled water. • Lysis Buffer: add 50 μL of the CBA Digitonin Solution to 10 mL of Buffer Assay 1×. • Substrate Solution: dilute 10 μL of CBA sEH Substrate with 10 mL of Assay Buffer 1×. • Standards: preparation of 7 concentrations of CBA 6-methoxy-2-naphtalaldehyde from 0 until 2 M with Assay Buffer 1×. • sEH Positive Control: Prepare another stock A (1 μg/ml: 1 μL CBA sEH Positive Control+1 mL Assay Buffer 1×). From the already prepared stock A, prepare 250 μL of sEH (10 ng/mL): 2.5 μL sEH stock A+250 μL Assay Buffer 1×). • sEH Inhibitor AUDA: dilute 10 μL CBA sEH Inhibitor with 500 ml Assay Buffer 1×. • Inhibitors dissolved in DMSO at appropriated concentrations.
Seed cells in a 96-well plate at a density of (2×10^4)-(5×10^4) cells/well in 100 μL of culture medium with or without compounds to be tested. Incubation of the cells in a CO2 incubator at 37° C. for 48 hours. Aspirate the culture medium and add 200 μL of Assay Buffer 1× to each well. Centrifuge the plate at 800 rmp for 5 minutes. Aspirate the supernatant and add 100 μL of Lysis Buffer to each well. Incubate with gentle shaking on an orbital shaker for 30 minutes at room temperature. Centrifuge the plate at 3000 rpm for 20 minutes at 4° C. Transfer 90 μL of the supernatants to the 96-Well Solid Plate (black). Add 10 μL Assay Buffer 1× or 10 μL of the AUDA solution to appropriate wells. For positive control wells, add 100 μL of the 10 ng/mL sEH Positive Control to two wells. Add 200 μL of 6-methoxy-2-Naphthaldehyde Standards to corresponding wells of the black plate. Add 100 μL of the sEH Substrate Solution to each well, except the standards. Incubate the plate at 37° C. for 30 minutes. […] The intensity of fluorescence was used to analyze and calculate inhibition percentages, shown in the Table as average of minimum three independent replicates.

CYP2C19 = CYP2C19 (Homo sapiens, UniProt P33261); experiment: Inhibition of human cytochrome P450 CYP2C19; assay type: in vitro ADME; conditions: human cytochrome P450 enzyme
Chain of CYP2C19 (P33261 whole entry): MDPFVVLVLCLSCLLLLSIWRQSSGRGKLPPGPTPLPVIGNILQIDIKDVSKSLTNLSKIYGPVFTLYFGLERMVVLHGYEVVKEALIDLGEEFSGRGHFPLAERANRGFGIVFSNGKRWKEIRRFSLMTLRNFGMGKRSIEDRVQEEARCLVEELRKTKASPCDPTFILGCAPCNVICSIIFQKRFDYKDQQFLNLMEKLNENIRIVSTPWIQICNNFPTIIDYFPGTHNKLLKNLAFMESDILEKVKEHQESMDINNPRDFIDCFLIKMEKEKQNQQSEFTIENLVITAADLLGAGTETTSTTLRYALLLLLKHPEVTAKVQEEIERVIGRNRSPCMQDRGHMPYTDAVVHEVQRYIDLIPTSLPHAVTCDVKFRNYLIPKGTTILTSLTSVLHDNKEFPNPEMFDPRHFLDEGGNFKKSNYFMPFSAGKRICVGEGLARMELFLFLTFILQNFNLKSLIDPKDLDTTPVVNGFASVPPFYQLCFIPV
From the text: (§1) The epoxidation of arachidonic acid (AA) by selected cytochrome P450 epoxygenases generates epoxyeicosatrienoic acids (EETs). These EETs show anti-inflammatory, antihypertensive, analgesic, angiogenic, and antiatherosclerotic effects in rodents and humans. sEH converts EETs to their corresponding dihydroxyeicosatrienoic acids (DHETs), whereby the biological effects of EETs are diminished, eliminated, or altered. Among the P450 enzymes, it is known that CYP2C19 and CYP1A2 have the highest formation rate of EETs from AA (cf. A. A. El-Sherbeni et al. “Repurposing resveratrol and fluconazole to modulate human cytrochrome P450-mediated arachidonic acid metabolites”, Molecular Pharmaceutics 2016, vol. 13, pp. 1278-1288). For this reason, a highly desirable aspect of any new sEH inhibitor is selectivity in front of CYP2C19 and CYP1A2.

CYP1A2 = target: T3, CYP1A2 (Homo sapiens, UniProt P05177); experiment: Inhibition of human cytochrome P450 CYP1A2; assay type: in vitro ADME; conditions: human cytochrome P450 enzyme
T3 sequence (P05177 1-516): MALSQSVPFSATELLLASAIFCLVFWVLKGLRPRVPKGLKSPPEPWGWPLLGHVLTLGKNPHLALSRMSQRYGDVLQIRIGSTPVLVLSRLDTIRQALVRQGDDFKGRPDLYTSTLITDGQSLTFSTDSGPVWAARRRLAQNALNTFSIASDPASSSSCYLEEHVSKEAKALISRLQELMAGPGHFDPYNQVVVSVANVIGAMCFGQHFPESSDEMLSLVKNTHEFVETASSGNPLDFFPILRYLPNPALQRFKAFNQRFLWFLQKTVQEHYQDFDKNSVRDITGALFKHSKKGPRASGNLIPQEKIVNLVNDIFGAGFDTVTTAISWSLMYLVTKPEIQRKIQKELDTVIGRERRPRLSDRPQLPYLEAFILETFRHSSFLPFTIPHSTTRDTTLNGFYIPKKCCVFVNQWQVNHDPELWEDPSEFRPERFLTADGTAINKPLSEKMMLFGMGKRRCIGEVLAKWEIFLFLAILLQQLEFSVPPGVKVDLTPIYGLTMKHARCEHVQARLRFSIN
From the text: as §1

| SMILES | IC50 (recombinant human sEH) | solubility [3] | CC50 at 72 h [1] | CNS prediction [2] | inhibition at 100 µM (sEH in AR42j cells) | CC50 at 72 h ([1]; THLE-2 cells, 72 h exposure, 0-100 μM, read-out: LC50 (μM), cytotoxicity) | inhibition at 1 µM (CYP2C19) | inhibition at 1 µM (CYP1A2) |
| --- | --- | --- | --- | --- | --- | --- | --- | --- |
| O=C(Nc1ccc(F)c(F)c1F)NC12CC3CC(C1)CC(c1ccccc1)(C3)O2 [Ie, 1-(3-phenyl-2-oxaadamantan-1-yl)-3-(2,3,4-trifluorophenyl)urea] | 21.3 ± 4.3 nM | – | – | – | – | – | – | – |
| CC(=O)N1CCC(NC(=O)NC23CC4CC(CC(C4)O2)C3)CC1 [If, 1-(2-oxaadamantan-1-yl)-3-(1-acetylpiperidin-4-yl)urea] | 19.8 ± 6.2 nM | > 100 µM | – | – | 42.1 ± 5% | > 100 µM | ≤ 6% | ≤ 6% |

Now from value to compound, other results behind:

| IC50 (recombinant human sEH) | solubility [3] | SMILES | CC50 at 72 h [1] | CNS prediction [2] | inhibition at 100 µM (sEH in AR42j cells) | CC50 at 72 h ([1]; THLE-2 cells, 72 h exposure, 0-100 μM, read-out: LC50 (μM), cytotoxicity) | inhibition at 1 µM (CYP2C19) | inhibition at 1 µM (CYP1A2) |
| --- | --- | --- | --- | --- | --- | --- | --- | --- |
| 8.1 ± 3.2 nM | 77 µM (≈ 27.3 µg/mL) | CCC12CC3CC(C1)CC(NC(=O)Nc1ccc(F)c(F)c1F)(C3)O2 [Ic, 1-(3-ethyl-2-oxaadamantan-1-yl)-3-(2,3,4-trifluorophenyl)urea] | > 100 µM | CNS+ (Compounds of high BBB permeation (CNS+): Pe (10^6 cm s^−1)>5.181) | – | – | – | – |
| 21.3 ± 5.4 nM | 63 µM (≈ 21.4 µg/mL) | CC12CC3CC(C1)CC(NC(=O)Nc1ccc(F)c(F)c1F)(C3)O2 [Ib, 1-(3-methyl-2-oxaadamantan-1-yl)-3-(2,3,4-trifluorophenyl)urea] | > 100 µM | CNS+ (Compounds of high BBB permeation (CNS+): Pe (10^6 cm s^−1)>5.181) | – | – | – | – |
| 17.5 ± 3.6 nM | – | O=C(Nc1ccc(F)c(F)c1F)N[C@@]12CC3C[C@H](C1)C[C@](C1CCCCC1)(C3)O2 (stereo in doubt) [Id, 1-(3-cyclohexyl-2-oxaadamantan-1-yl)-3-(2,3,4-trifluorophenyl)urea] | – | – | – | – | – | – |
